From patent publication US4826875A, “Pharmaceutical compositions containing levodopa methyl ester, preparation and therapeutic applications thereof” (priority 1986, dated 1989)
Read-outs that look alike come from different tables or passages of the source.

What was measured:
[1] = system: Parkinson's disease; conditions: cited from earlier work
[2] = in vivo
[3] = clinical; design: species or system patients; conditions: human, in vivo, po
Text: The pharmaceutical composition as per Example 1 above has been orally administered to parkinsonian patients manifesting the on-off phenomenon, in order to evaluate the bioavailability and the clinical effect of LDME in this formulation in comparison with levodopa.
(§1) As previously illustrated, patients manifesting the on-off phenomenon alternate between periods when parkinsonian signs are relatively severe and intervals when parkinsonism is largely, if not completely, replaced by unvoluntary movements.
The absorption of LDME was infact very rapid, reaching the maximum concentration peak at 40-45 minutes from the administration.
Levodopa plasmatic levels after single oral administration
of corresponding doses of active principle (mg 200) re-
spectively of LDME and levodopa in two patients.

[4] = cited from earlier work
[5] = Solubility; type: physicochemical; conditions: aqueous compositions
[6] = Absorption by rectal route
[7] = other experimental patterns; cited from earlier work
[8] = system: reserpine-treated cats; conditions: cited from earlier work
[9] = system: parkinsonian patients manifesting the on-off phenomenon; assay: Clinical effect of oral LDME (Example 1 composition) vs levodopa in parkinsonian patients manifesting the on-off phenomenon; type: in vivo
Text: as §1

## CC(C)C[C@H]1C(=O)N2CCC[C@H]2[C@]2(O)O[C@](NC(=O)[C@@H]3C=C4c5cccc6[nH]c(Br)c(c56)C[C@H]4N(C)C3)(C(C)C)C(=O)N12 [bromocriptine]
[1]; alternative therapies with dopaminergic drugs
  prevention or reduction of response fluctuations: do not give actual advantages in prevention or reduction of response fluctuations

## N[C@@H](Cc1ccc(O)c(O)c1)C(=O)O [levodopa, (-)-3-(3,4-dihydroxyphenyl)-L-alanine]
[1]; chronic treatment per os
  duration of efficacy ("end-of-dose deterioration"): 3 to 4 h
  unwanted effects: abnormal unvoluntary movements
[1]; constant intravenous infusion
  clinical response: a stable clinical response can be maintained for hours
[2]
  rectal absorption / plasma levels by rectal administration: not absorbed by rectal mucosa
[3]; 0 min
  Levodopa plasmatic levels: 0 µg/mL
[3]; 0.25 h
  Levodopa plasmatic levels: 0.35 µg/mL
[3]; 0.5 h
  Levodopa plasmatic levels: 0.66 µg/mL
[3]; 0.75 h
  Levodopa plasmatic levels: 0.88 µg/mL
[3]; 1 h
  Levodopa plasmatic levels: 1.15 µg/mL
[3]; 80 min
  Levodopa plasmatic levels: 1.67 µg/mL
[3]; 100 min
  Levodopa plasmatic levels: 1.39 µg/mL
[3]; 2 h
  Levodopa plasmatic levels: 1.35 µg/mL
[3]; 140 min
  Levodopa plasmatic levels: 1.05 µg/mL
[3]; 160 min
  Levodopa plasmatic levels: 0.82 µg/mL
[3]; 3 h
  Levodopa plasmatic levels: 0.80 µg/mL
[3]; 3.5 h
  Levodopa plasmatic levels: 0.58 µg/mL
[3]; 4 h
  Levodopa plasmatic levels: 0.45 µg/mL
[3]; 4.5 h
  Levodopa plasmatic levels: 0.38 µg/mL
[3]; 5 h
  Levodopa plasmatic levels: 0.17 µg/mL
[3]; Levodopa plasmatic levels
  concentration at 0.25 h: 310 ng/mL
  concentration at 0.5 h: 1050 ng/mL
  concentration at 0.75 h: 1410 ng/mL
  concentration at 1 h: 1130 ng/mL
  concentration at 80 min: 1470 ng/mL
  concentration at 100 min: 1170 ng/mL
  concentration at 2 h: 930 ng/mL
  concentration at 140 min: 1030 ng/mL
  concentration at 160 min: 820 ng/mL
  concentration at 3 h: 650 ng/mL
  concentration at 3.5 h: 700 ng/mL
  concentration at 4 h: 490 ng/mL
  concentration at 4.5 h: 350 ng/mL
  concentration at 5 h: 280 ng/mL
  concentration at 5.5 h: 420 ng/mL
[4]
  solubility: slightly soluble

## COC(=O)[C@@H](N)Cc1ccc(O)c(O)c1 [LDME, levodopa methyl ester]
[5]
  solubility: high solubility
[6]
  rectal absorption / plasma levels by rectal administration: detectable plasma levels sufficient to assure a therapeutic effect
[7]
  activity compared with the starting compound (levodopa): as active as the starting compound
[8]
  effects compared with levodopa (brain catecholamine levels, conditioned avoidance response): causes the same effects as levodopa
[3]
  absorption: very rapid
  time of maximum concentration peak from the administration: 40 to 45 min
[3]; 0 min
  Levodopa plasmatic levels: 0 µg/mL
[3]; 330 min
  Levodopa plasmatic levels: 0.20 µg/mL
[9]; composition of Example 1
  duration of action ("on" period duration) in respect to levodopa: superior
  onset of the therapeutic effect: 20 to 30 min
[9]; composition of Example 1, subjects presenting "long-term syndrome", preliminary trials
  dyskinesias at the moment of the appearance of the mobility ("on" phase): does not seem to induce dyskinesias
